Test results reported in patent US5413990A, “N-terminus modified analogs of LHRH” (Tap Pharmaceuticals Inc., priority 1993, dated 1995).
Numbered stars: 1 amine (or outer) side, 2 acyl side, 3 side chain; on linkers, the order of the positions; unused ones are H or OH. Square brackets hold non-standard residues; d marks the D form. Peptide text beside a SMILES is read from it. * marks the point of attachment. X3 = NC(=O)N[C@H](Cc1ccc2ccccc2c1)C(=O)*; dPhe(4-Cl) = N[C@H](Cc1ccc(Cl)cc1)C(=O)O; Desaminotyrosyl = O=C(CCc1ccc(O)cc1)*; d2Nal = N[C@H](Cc1ccc2ccccc2c1)C(=O)O; Lys(iPr) = CC(C)NCCCC[C@H](N)C(=O)O; NMeY = CN[C@@H](Cc1ccc(O)cc1)C(=O)O; Cyclopropanecarbonyl = O=C(C1CC1)*; dCit = NC(=O)NCCC[C@@H](N)C(=O)O; d3Pal = N[C@H](Cc1cccnc1)C(=O)O; Suc = O=C(CCC(=O)[*:2])[*:1]; Succinamoyl = NC(=O)CCC(=O)*; Nicotinoyl = O=C(c1cccnc1)*; X2 = O=C(CCc1ccc2ccccc2c1)*; Morpholide = C1CN(*)CCO1; PhAc = O=C(Cc1ccccc1)*; CO = O=C([*:1])[*:2]; Propionyl = CCC(=O)*; Butyryl = CCCC(=O)*; Glycolyl = O=C(CO)*; For = O=C*

Biological target: T1, LHRH (Rattus norvegicus, UniProt P30969)
T1 construct: evaluated in an in vitro test for LHRH antagonist potency (pA2); endogenous in cells; host or cells: pituitary cells (rat, from my own knowledge of the cited method)
T1 sequence (P30969 1-327): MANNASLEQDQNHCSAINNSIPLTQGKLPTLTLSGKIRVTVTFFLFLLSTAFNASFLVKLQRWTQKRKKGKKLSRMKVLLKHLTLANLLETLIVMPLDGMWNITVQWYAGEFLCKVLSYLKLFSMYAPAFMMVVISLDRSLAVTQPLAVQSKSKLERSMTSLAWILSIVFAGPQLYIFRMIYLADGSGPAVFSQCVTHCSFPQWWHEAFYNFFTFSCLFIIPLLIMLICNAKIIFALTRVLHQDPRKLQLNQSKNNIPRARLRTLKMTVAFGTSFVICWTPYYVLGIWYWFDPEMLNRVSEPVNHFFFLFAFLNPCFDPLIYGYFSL
Experiment: in vitro test for LHRH antagonist potency (pA2)
Format: cell-based
Conditions: negative logarithm of the antagonist concentration required to shift the response curve produced by the agonist leuprolide to two-fold higher concentration
Description: Representative compounds of the present invention were evaluated in an in vitro test for LHRH antagonist potency (pA2). The test employed the method detailed in F. Haviv, et al. J. Med. Chem., 32:2340-2344 (1989). The values of pA2 are the negative logarithms of the concentration of the particular antagonist test compound required to shift the response curve produced by the agonist leuprolide to two-fold higher concentration. (Leuprolide is the LHRH agonist having the structure 5-oxo-Pro^1 -His^2 -Trp^3 -Ser^4 -Tyr^5 -D-Leu^6 -Leu^7 -Arg^8 -Pro^9 -NHEt and is disclosed and claimed in U.S. Pat. No. 4,005,063.) Typically pA2 values of 9.5 or greater are indicative of good LHRH antagonist potency, with values of 10.0 or greater being preferred.

SMILES	Kb [nM]
CC(C)C[C@H](NC(=O)[C@@H](CCCCNC(=O)c1cccnc1)NC(=O)[C@H](Cc1ccc(O)cc1)N(C)C(=O)[C@H](CO)NC(=O)[C@@H](Cc1cccnc1)NC(=O)[C@@H](Cc1ccc(Cl)cc1)NC(=O)[C@@H](Cc1ccc2ccccc2c1)NC(=O)CCc1ccc(O)cc1)C(=O)N[C@@H](CCCCNC(C)C)C(=O)N1CCC[C@H]1C(=O)N[C@H](C)C(N)=O [Example 2m, N-3-(4-Hydroxyphenyl)propionyl-D2Nal-D4ClPhe-D3Pal-Ser-NMeTyr-DLys(N-epsilon-Nicotinyl)-Leu-Lys(N-epsilon -Isopropyl)-Pro-DAlaNH2] (Desaminotyrosyl-[d2Nal][dPhe(4-Cl)][d3Pal]S[NMeY][dK](Nicotinoyl)L[Lys(iPr)]P[dA]-NH2)	0.02
CC(C)C[C@H](NC(=O)[C@@H](CCCCNC(=O)c1cccnc1)NC(=O)[C@H](Cc1ccc(O)cc1)N(C)C(=O)[C@H](CO)NC(=O)[C@@H](Cc1cccnc1)NC(=O)[C@@H](Cc1ccc(Cl)cc1)NC(=O)[C@@H](Cc1ccc2ccccc2c1)NC(=O)CCc1ccc2ccccc2c1)C(=O)N[C@@H](CCCCNC(C)C)C(=O)N1CCC[C@H]1C(=O)N[C@H](C)C(N)=O [Example 2o, N-3(2-Naphthyl)propionyl-D2Nal-D4ClPhe-D3Pal-Ser-NMeTyr-DLys(N-epsilon-Nicotinyl)-Leu-Lys(N-epsilon-Isopropyl) -Pro-DAlaNH2] (X2-[d2Nal][dPhe(4-Cl)][d3Pal]S[NMeY][dK](Nicotinoyl)L[Lys(iPr)]P[dA]-NH2)	0.0794
CC(C)C[C@H](NC(=O)[C@@H](CCCCNC(=O)c1cccnc1)NC(=O)[C@H](Cc1ccc(O)cc1)N(C)C(=O)[C@H](CO)NC(=O)[C@@H](Cc1cccnc1)NC(=O)[C@@H](Cc1ccc(Cl)cc1)NC(=O)[C@@H](Cc1ccc2ccccc2c1)NC(=O)CCC(=O)O)C(=O)N[C@@H](CCCCNC(C)C)C(=O)N1CCC[C@H]1C(=O)N[C@H](C)C(N)=O [Example 3, N-Succinyl-D2Nal-D4ClPhe-D3Pal-Ser-NMeTyr-DLys(Nicotinyl)-Leu-Lys(N-epsilon-lsopropyl.)-Pro-DAlaNH2] (Suc-[d2Nal][dPhe(4-Cl)][d3Pal]S[NMeY][dK](Nicotinoyl)L[Lys(iPr)]P[dA]-NH2)	0.0513
CC(C)C[C@H](NC(=O)[C@@H](CCCNC(N)=O)NC(=O)[C@H](Cc1ccc(O)cc1)N(C)C(=O)[C@H](CO)NC(=O)[C@@H](Cc1cccnc1)NC(=O)[C@@H](Cc1ccc(Cl)cc1)NC(=O)[C@@H](Cc1ccc2ccccc2c1)NC(=O)CO)C(=O)N[C@@H](CCCNC(=N)N)C(=O)N1CCC[C@H]1C(=O)N[C@H](C)C(N)=O [Example 4, N-Glycolyl-D2Nal-D4ClPhe-D3Pal-Ser-NMeTyr-DCit-Leu-Arg-Pro-DAlaNH2] (Glycolyl-[d2Nal][dPhe(4-Cl)][d3Pal]S[NMeY][dCit]LRP[dA]-NH2)	0.00661
CC(C)C[C@H](NC(=O)[C@@H](CCCNC(N)=O)NC(=O)[C@H](Cc1ccc(O)cc1)N(C)C(=O)[C@H](CO)NC(=O)[C@@H](Cc1cccnc1)NC(=O)[C@@H](Cc1ccc(Cl)cc1)NC(=O)[C@@H](Cc1ccc2ccccc2c1)NC=O)C(=O)N[C@@H](CCCNC(=N)N)C(=O)N1CCC[C@H]1C(=O)N[C@H](C)C(N)=O [Example 5a, N-Formyl-D2Nal-D4ClPhe-D3Pal-Ser-NMeTyr-DCit-Leu-Arg-Pro-DAlaNH2] (For-[d2Nal][dPhe(4-Cl)][d3Pal]S[NMeY][dCit]LRP[dA]-NH2)	0.00447
CCC(=O)N[C@H](Cc1ccc2ccccc2c1)C(=O)N[C@H](Cc1ccc(Cl)cc1)C(=O)N[C@H](Cc1cccnc1)C(=O)N[C@@H](CO)C(=O)N(C)[C@@H](Cc1ccc(O)cc1)C(=O)N[C@H](CCCNC(N)=O)C(=O)N[C@@H](CC(C)C)C(=O)N[C@@H](CCCNC(=N)N)C(=O)N1CCC[C@H]1C(=O)N[C@H](C)C(N)=O [Example 5b, N-Propionyl-D2Nal-D4ClPhe-D3Pal-Ser-NMeTyr-DCit-Leu-Arg-Pro-DAlaNH2] (Propionyl-[d2Nal][dPhe(4-Cl)][d3Pal]S[NMeY][dCit]LRP[dA]-NH2)	0.00347
CCCC(=O)N[C@H](Cc1ccc2ccccc2c1)C(=O)N[C@H](Cc1ccc(Cl)cc1)C(=O)N[C@H](Cc1cccnc1)C(=O)N[C@@H](CO)C(=O)N(C)[C@@H](Cc1ccc(O)cc1)C(=O)N[C@H](CCCNC(N)=O)C(=O)N[C@@H](CC(C)C)C(=O)N[C@@H](CCCNC(=N)N)C(=O)N1CCC[C@H]1C(=O)N[C@H](C)C(N)=O [Example 5c, N-Butyryl-D2Nal-D4ClPhe-D3Pal-Ser-NMeTyr-DCit-Leu-Arg-Pro-DAlaNH2] (Butyryl-[d2Nal][dPhe(4-Cl)][d3Pal]S[NMeY][dCit]LRP[dA]-NH2)	0.00562
CC(C)C[C@H](NC(=O)[C@@H](CCCNC(N)=O)NC(=O)[C@H](Cc1ccc(O)cc1)N(C)C(=O)[C@H](CO)NC(=O)[C@@H](Cc1cccnc1)NC(=O)[C@@H](Cc1ccc(Cl)cc1)NC(=O)[C@@H](Cc1ccc2ccccc2c1)NC(=O)CCC(N)=O)C(=O)N[C@@H](CCCNC(=N)N)C(=O)N1CCC[C@H]1C(=O)N[C@H](C)C(N)=O [Example 5d, N-Succinamyl-D2Nal-D4ClPhe-D3Pal-Ser-NMeTyr-DCit-Leu-Arg-Pro-DAlaNH2] (Succinamoyl-[d2Nal][dPhe(4-Cl)][d3Pal]S[NMeY][dCit]LRP[dA]-NH2)	0.00646
CC(C)C[C@H](NC(=O)[C@@H](CCCNC(N)=O)NC(=O)[C@H](Cc1ccc(O)cc1)N(C)C(=O)[C@H](CO)NC(=O)[C@@H](Cc1cccnc1)NC(=O)[C@@H](Cc1ccc(Cl)cc1)NC(=O)[C@@H](Cc1ccc2ccccc2c1)NC(=O)C1CC1)C(=O)N[C@@H](CCCNC(=N)N)C(=O)N1CCC[C@H]1C(=O)N[C@H](C)C(N)=O [Example 5e, N-Cyclopropylcarbonyl-D2Nal-D4ClPhe-D3PaI-Ser-NMeTyr-DCit-Leu-Arg-ProDAlaNH2] (Cyclopropanecarbonyl-[d2Nal][dPhe(4-Cl)][d3Pal]S[NMeY][dCit]LRP[dA]-NH2)	0.0112
CC(C)C[C@H](NC(=O)[C@@H](CCCNC(N)=O)NC(=O)[C@H](Cc1ccc(O)cc1)N(C)C(=O)[C@H](CO)NC(=O)[C@@H](Cc1cccnc1)NC(=O)[C@@H](Cc1ccc(Cl)cc1)NC(=O)[C@@H](Cc1ccc2ccccc2c1)NC(=O)Cc1ccccc1)C(=O)N[C@@H](CCCNC(=N)N)C(=O)N1CCC[C@H]1C(=O)N[C@H](C)C(N)=O [Example 5f, NPhenylacetyl-D2Nal-D4ClPhe-D3Pal-Ser-NMeTyr-DCit-Leu-Arg-Pro-DAlaNH2] (PhAc-[d2Nal][dPhe(4-Cl)][d3Pal]S[NMeY][dCit]LRP[dA]-NH2)	0.0158
CC(C)C[C@H](NC(=O)[C@@H](CCCNC(N)=O)NC(=O)[C@H](Cc1ccc(O)cc1)N(C)C(=O)[C@H](CO)NC(=O)[C@@H](Cc1cccnc1)NC(=O)[C@@H](Cc1ccc(Cl)cc1)NC(=O)[C@@H](Cc1ccc2ccccc2c1)NC(=O)CCC(=O)O)C(=O)N[C@@H](CCCNC(=N)N)C(=O)N1CCC[C@H]1C(=O)N[C@H](C)C(N)=O [Example 6, N-Succinyl-D2Nal-D4ClPhe-D3Pal-Ser-NMeTyr-DCit-Leu-Arg-Pro-DAlaNH2] (Suc-[d2Nal][dPhe(4-Cl)][d3Pal]S[NMeY][dCit]LRP[dA]-NH2)	0.0398
CC(C)C[C@H](NC(=O)[C@@H](CCCNC(N)=O)NC(=O)[C@H](Cc1ccc(O)cc1)N(C)C(=O)[C@H](CO)NC(=O)[C@@H](Cc1cccnc1)NC(=O)[C@@H](Cc1ccc(Cl)cc1)NC(=O)[C@@H](Cc1ccc2ccccc2c1)NC(N)=O)C(=O)N[C@@H](CCCNC(=N)N)C(=O)N1CCC[C@H]1C(=O)N[C@H](C)C(N)=O [Example 7, N:(Aminocarbonyl)-D2Nal-D4ClPhe-D3 Pal-Ser- NMeTyr-DCit-Leu-Arg-ProDAIaNH2] (X3-[dPhe(4-Cl)][d3Pal]S[NMeY][dCit]LRP[dA]-NH2)	0.00603
CCNC(=O)N[C@H](Cc1ccc2ccccc2c1)C(=O)N[C@H](Cc1ccc(Cl)cc1)C(=O)N[C@H](Cc1cccnc1)C(=O)N[C@@H](CO)C(=O)N(C)[C@@H](Cc1ccc(O)cc1)C(=O)N[C@H](CCCNC(N)=O)C(=O)N[C@@H](CC(C)C)C(=O)N[C@@H](CCCNC(=N)N)C(=O)N1CCC[C@H]1C(=O)N[C@H](C)C(N)=O [Example 8a, N-(Ethylaminocarbonyl)-D2Nal- D4ClPhe-D3Pal-Ser-NMeTyr-DCit-Leu-Arg-ProDAlaNH2] ({NHEt-CO}-[d2Nal][dPhe(4-Cl)][d3Pal]S[NMeY][dCit]LRP[dA]-NH2)	0.0933
CC(C)C[C@H](NC(=O)[C@@H](CCCNC(N)=O)NC(=O)[C@H](Cc1ccc(O)cc1)N(C)C(=O)[C@H](CO)NC(=O)[C@@H](Cc1cccnc1)NC(=O)[C@@H](Cc1ccc(Cl)cc1)NC(=O)[C@@H](Cc1ccc2ccccc2c1)NC(=O)N1CCOCC1)C(=O)N[C@@H](CCCNC(=N)N)C(=O)N1CCC[C@H]1C(=O)N[C@H](C)C(N)=O [Example 8b, N-(Morpholinocarbonyl)-D2Nal-D4ClPhe-D 3Pal- Ser-NMeTyr-DCit-Leu-Arg-Pro-DAlaNH2] ({Morpholide-CO}-[d2Nal][dPhe(4-Cl)][d3Pal]S[NMeY][dCit]LRP[dA]-NH2)	0.02
